According to patent US20120010075A1 (priority 2009, published 2012):
Where two headings read alike, the source gives them in different places.

How the values were obtained:
[1] = system: Leptosphaeria nodorum (LEPTNO); test: In vitro fungitoxicity of hydrazones with and without copper towards Leptosphaeria nodorum (Example 26); type: cell-based; conditions: 72 h at 25° C.; for inhibition of growth at 0.05 µg/mL: Parastagonospora nodorum, 72 h, copper-minus medium, read-out: LEPTNO % Inhn. Minus Copper Observed
Phytophthora infestans = type: in vivo, Phytophthora infestans on tomato; conditions: applied 24 h before inoculation, assessed 7 days after inoculation
[2] = test compound Concn. 0.05 μg/mL
[3] = copper-plus medium (CuCl2 10 μM), test compound Concn. 0.05 μg/mL
[4] = hydrazone 50 ppm with 50 μM CuCl2.2H2O, tomato late blight
[5] = compound 0.05 μg/mL, copper-plus medium (CuCl2.2H2O)
[6] = hydrazone 50 ppm + 50 μM CuCl2.2H2O, tomato

| SMILES | inhibition of growth at 0.05 µg/mL [1, 2] [%] | LEPTNO % Inhn. Plus Copper Observed [1, 3] [%] | TLB % Control (Phytophthora infestans; [4]) [%] | melting point [°C] | inhibition of growth at 0.05 µg/mL ([1]; compound 0.05 μg/mL) [%] | LEPTNO % Inhn. Plus Copper Observed [1, 5] [%] | TLB % Control (Phytophthora infestans; [6]) [%] |
| --- | --- | --- | --- | --- | --- | --- | --- |
| Cc1cccc(C(=O)N/N=C/c2c(C(F)(F)F)ccc(Cl)c2O)c1 [Example 447] | 20 | 96.6 | 100.0 | 219 to 221 | – | – | – |
| C/C(=N\NC(=O)c1cccc(C)c1)c1cc(C)ccc1O [Example 313] | 8.5 | 98.5 | 28.0 | 182 to 184 | – | – | – |
| COc1ccc(/C(C)=N/NC(=O)c2ccc(Br)cc2)c(O)c1OC [Example 559] | 10 | 97.3 | 93.0 | 241 to 245 | – | – | – |
| O=C(N/N=C/c1cccc(Cl)c1O)c1cccc([N+](=O)[O-])c1 [Example 429] | 10.4 | 97.4 | 94.0 | 236 to 239 | – | – | – |
| C/C(=N\NC(=O)c1ccccc1)c1cc(Br)ccc1O [Example 287] | – | – | – | 204 to 208 | 0 | 98.3 | 65.0 |
| Cc1cccc(C(=O)N/N=C/c2ccc(Cl)c(Cl)c2O)c1 [Example 354] | 18.4 | 95.4 | 98.0 | 212 to 214 | – | – | – |
| C/C(=N\NC(=O)c1cccc(Cl)c1)c1cccc(Cl)c1O [Example 497] | 0 | 98.1 | 75.0 | 197 to 219 | – | – | – |
| C/C(=N\NC(=O)c1cc(Cl)ccc1O)c1cc(Cl)cc(Cl)c1O [Example 490] | 31.5 | 97.0 | 55.0 | 322 to 325 | – | – | – |
| C/C(=N\NC(=O)c1ccccc1Br)c1cccc([N+](=O)[O-])c1O [Example 524] | 9.3 | 95.8 | 39.0 | 186 to 188 | – | – | – |
| Cc1ccc(C(=O)N/N=C/c2cc(C(F)(F)F)cc(Cl)c2O)c(O)c1 [Example 331] | 22.8 | 97.8 | 100.0 | 255 to 257 | – | – | – |
| O=C(N/N=C/c1c(O)cccc1Cl)c1cccc(Cl)c1 [Example 402] | 0 | 95.2 | 100.0 | 250 to 253 | – | – | – |
| O=C(N/N=C/c1c(C(F)(F)F)ccc(Cl)c1O)c1cccc([N+](=O)[O-])c1 [Example 453] | 5.6 | 100.0 | 100.0 | 277 to 279 | – | – | – |
| C/C(=N\NC(=O)c1ccc(Br)cc1)c1cc(F)cc(F)c1O [Example 580] | 3.1 | 98.1 | 97.0 | 268 to 270 | – | – | – |
| COc1ccc(/C(C)=N/NC(=O)c2ccccc2Br)c(O)c1OC [Example 561] | 0 | 92.2 | 60.0 | 195 to 200 | – | – | – |
| COc1cc(Br)cc(/C=N/NC(=O)c2cc(C)cc(C)c2)c1O [Example 209] | – | – | – | 189 to 193 | 17.6 | 95.9 | 67.3 |
| C/C(=N\NC(=O)c1cccc(C)c1)c1cc(C(F)(F)F)ccc1O [Example 529] | 15.3 | 97.7 | 46.0 | 235 to 238 | – | – | – |
| O=C(N/N=C/c1cc(C(F)(F)F)cc(C(F)(F)F)c1O)c1cccc([N+](=O)[O-])c1 [Example 338] | 9 | 98.1 | 96.0 | 256 to 258 | – | – | – |
| COc1ccc(O)c(/C(C)=N/NC(=O)c2ccc(Cl)cc2)c1 [Example 267] | – | – | – | 193 to 196 | 5.7 | 98.3 | 33.0 |
| COc1ccc(C(=O)N/N=C(\C)c2cccc(Cl)c2O)cc1 [Example 499] | 0 | 97.4 | 85.0 | 203 to 204 | – | – | – |
| Cc1cccc(C(=O)N/N=C/c2cc(Cl)ccc2O)c1 [Example 419] | 3.2 | 94.9 | 90.0 | 188 to 196 | – | – | – |
